The source of these data is patent publication US9387263B2, “RbAp48 transgenic mice for drug discovery in age-related memory decline” (THE TRUSTEES OF COLUMBIA UNIVERSITY IN THE CITY OF NEW YORK, priority 2011, dated 2016).

The test system of this test is RbAp48 mRNA expression in hippocampus. In words: RbAp48 transcript in situ hybridization in adult hippocampus after injection of kainic acid (synaptic stimulation). In kind it is in vivo, mouse. Conditions: wild type mice. As to the method:
FIG. 14: RbAp48 transcript distribution in the adult hippocampus of wild type mice in either control conditions (injection of saline) of after injection of kainic acid (synaptic stimulation). Coronal cryosections were hybridized with radio-labelled oligonucleotides specific for RbAp48. […] This upregulation of RbAp48 lasted for four hours (8 hr to 12 hr time points).
RNA In Situ Hybridizations: RNA in situ hybridizations were performed on fresh frozen adult brain slices using 40-45 base anti-sense oligonucleotides^37. The oligonucleotides used for the detection of RbAp48-DN-Flag and RbAp48 transcripts can be found in supplemental table 3.
Treatment with Kainic Acid Kainic acid (Sigma) was injected intraperitoneally as previously described^42
Because RbAp48 regulates histone acetylation, it was explored whether RbAp48-DN affects the steady state levels of histone acetylation in the hippocampal formation using immunohistochemistry and image quantification analysis to measure histone acetylation. The initial focus was on the DG. […] To test for spatial specificity, the CA1 subregion was examined and no significant reduction in histone acetylation (FIGS. 12c & 12d) was found. As with behavior and fMRI, the effect of RbAp48-DN on H2B and H4 acetylation in the adult DG was reversed when its expression was turned off (mice on dox; FIGS. 12c & 12d).

Take `C=C(C)[C@H]1CN[C@H](C(=O)O)[C@H]1CC(=O)O` [kainic acid]: where the note is “dentate gyrus, 8 hr to 12 hr time points after kainic acid”, the “Duration of upregulation of RbAp48” value is reported as “four”. In addition, under “intraperitoneal kainic acid vs saline, eight hours after application, radio-labelled oligonucleotide in situ hybridization”, the “Expression of RbAp48 (transcript distribution in adult hippocampus)” value was “upregulated specifically in the dentate gyrus”.
